The source made the active and inactive calls.
Key:
Estrogen receptor = target: T1, Estrogen receptor (Homo sapiens, UniProt P03372);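 further: potency for inhibiting coactivator peptide recruitment to the receptor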
T1 sequence (P03372 whole entry): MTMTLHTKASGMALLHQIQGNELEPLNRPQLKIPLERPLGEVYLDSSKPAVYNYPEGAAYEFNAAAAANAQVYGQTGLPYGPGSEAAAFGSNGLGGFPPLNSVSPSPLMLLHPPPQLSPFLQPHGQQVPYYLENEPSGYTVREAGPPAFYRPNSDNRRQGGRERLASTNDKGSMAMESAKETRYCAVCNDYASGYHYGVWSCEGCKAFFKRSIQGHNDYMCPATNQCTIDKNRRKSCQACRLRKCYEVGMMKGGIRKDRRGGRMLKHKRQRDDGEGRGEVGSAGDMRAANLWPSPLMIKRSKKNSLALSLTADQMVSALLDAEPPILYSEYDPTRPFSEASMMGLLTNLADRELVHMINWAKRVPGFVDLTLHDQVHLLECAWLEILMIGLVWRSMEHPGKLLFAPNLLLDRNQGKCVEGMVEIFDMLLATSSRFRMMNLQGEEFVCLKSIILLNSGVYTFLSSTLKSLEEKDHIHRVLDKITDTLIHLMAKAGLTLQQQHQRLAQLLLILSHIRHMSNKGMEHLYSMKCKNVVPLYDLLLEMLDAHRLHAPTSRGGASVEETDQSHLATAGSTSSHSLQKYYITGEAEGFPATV

Protein Tat = Protein Tat (Human immunodeficiency virus type 1 group M subtype B (isolate HXB2)(HIV-1), UniProt P04608); format: functional;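 further: tat binding to TAR RNA read out by fluorescence polarization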
Sequence of Protein Tat (P04608 whole entry): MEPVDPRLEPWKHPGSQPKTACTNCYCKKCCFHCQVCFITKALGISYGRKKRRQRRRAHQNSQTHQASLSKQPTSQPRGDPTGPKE

[1] = cytotoxicity toward Colo320 cells – cell-based, CellTiter-Glo luminescence, IC50, dose response (AID 1117334); format: functional; details: COLO 320
[2] = glucagon-like peptide-1 release potency in STC-1, concentration-response, half-maximal inhibitory concentration in the STC-1 line (AID 1117345); format: functional, cell-based
[3] = Reduced DLD-1 viability, concentration-response, CellTiter-Glo luminescence (AID 1117352); format: functional
[4] = CellTiter-Glo luminescence survival assay, SW480 colon tumor line, concentration-response curve, half-maximal inhibitory concentration (AID 1117338); format: functional
[5] = HCT116 cell viability decrease, GSK3B pretreatment – CellTiter-Glo, IC50, dose response (AID 1117339); format: functional; details: HCT-116
[6] = SNU-C1 cell viability reduction, dose response, CellTiter-Glo luminescence (AID 1117323); format: functional, cell-based
[7] = cytotoxicity toward HT-29 cells – cell-based, CellTiter-Glo luminescence, IC50, dose response (AID 1117330); format: functional
[8] = rise of 2N DNA cells, HeLa – IC50, dose response (AID 1117349); format: functional, cell-based
[9] = rise of 4N DNA cells, HeLa – IC50, dose response (AID 1117351); format: functional, cell-based
[10] = Potency on glucagon-like peptide 1 release, dose-response in NCI-H716 cell line, half maximal inhibitory concentration (AID 1117344); format: functional, cell-based
[11] = RKO cell viability reduction, dose response, CellTiter-Glo luminescence (AID 1117322); format: functional
[12] = cytotoxicity toward HCT116 cells – cell-based, CellTiter-Glo luminescence, IC50, dose response (AID 1117332); format: functional; details: HCT-116
[13] = viability inhibitors of stage V gametocytes – luminescence, dose response (AID 1117278); format: functional, cell-based;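 further: gametocytes exposed to compound for 24 hours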
[14] = viability loss in human Jurkat cells – cell-based, luminescence, cytotoxicity control for P. falciparum gametocyte viability project, dose response (AID 1117277); format: functional;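 further: potency reflects loss of cellular ATP meaning fewer viable cells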
Large T antigen = Large T antigen (Simian virus 40, UniProt P03070); format: functional, Betapolyomavirus macacae;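 further: Confirmatory-stage PubChem screen for compounds that inhibit SV40 T antigen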
Sequence of Large T antigen (P03070 whole entry): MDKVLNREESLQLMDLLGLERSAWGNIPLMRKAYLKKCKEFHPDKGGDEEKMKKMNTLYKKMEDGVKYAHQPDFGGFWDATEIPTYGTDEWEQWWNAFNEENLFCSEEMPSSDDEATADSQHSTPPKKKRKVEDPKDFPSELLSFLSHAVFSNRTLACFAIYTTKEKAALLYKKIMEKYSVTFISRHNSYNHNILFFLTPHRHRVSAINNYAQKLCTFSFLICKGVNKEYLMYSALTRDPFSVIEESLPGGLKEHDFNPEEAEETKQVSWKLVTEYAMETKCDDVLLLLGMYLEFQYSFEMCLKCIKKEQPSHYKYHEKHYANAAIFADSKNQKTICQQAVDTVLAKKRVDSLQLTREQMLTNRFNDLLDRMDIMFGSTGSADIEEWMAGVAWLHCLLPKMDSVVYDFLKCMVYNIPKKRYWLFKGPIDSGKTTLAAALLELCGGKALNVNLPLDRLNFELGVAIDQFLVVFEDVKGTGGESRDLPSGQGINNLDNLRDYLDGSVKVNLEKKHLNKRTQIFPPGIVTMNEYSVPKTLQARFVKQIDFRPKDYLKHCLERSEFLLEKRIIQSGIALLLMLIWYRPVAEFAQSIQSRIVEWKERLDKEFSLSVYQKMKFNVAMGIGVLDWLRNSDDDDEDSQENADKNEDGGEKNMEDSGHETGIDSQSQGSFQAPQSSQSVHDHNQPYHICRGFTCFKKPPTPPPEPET

[15] = Trypanosoma cruzi growth suppression in host cells – NIH3T3 host cells, beta-gal luminescence, confirmation (AID 2044); format: functional, cell-based;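 further: intracellular parasites grown in NIH/3T3 mouse fibroblasts as host cells; luminescent beta-galactosidase reporter signal from transgenic T. cruzi replicating inside host cells; inhibitors lower the luminescence signal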
[16] = NIH3T3 cell viability loss – ATP luminescence, mouse fibroblasts, counter-screen, dose response (AID 2010); format: functional, cell-based;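 further: cells exposed to compound for about 90 hours before reading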
[17] = HIV-1 Vif–A3G interaction blockers – biochemical, TR-FRET, GST-Vif 1-94, biotin-A3G peptide, dose response retest, primary screen (AID 1117319); format: functional;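 further: TR-FRET signal of purified GST-Vif binding a biotinylated A3G peptide; inhibitors lower the FRET signal by blocking Vif and A3G binding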
Cytochrome P450 3A4 = Cytochrome P450 3A4 (Homo sapiens, UniProt P08684);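 further: CYP3A4 tested as one member of a cytochrome P450 panel screen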
Sequence of Cytochrome P450 3A4 (P08684 whole entry): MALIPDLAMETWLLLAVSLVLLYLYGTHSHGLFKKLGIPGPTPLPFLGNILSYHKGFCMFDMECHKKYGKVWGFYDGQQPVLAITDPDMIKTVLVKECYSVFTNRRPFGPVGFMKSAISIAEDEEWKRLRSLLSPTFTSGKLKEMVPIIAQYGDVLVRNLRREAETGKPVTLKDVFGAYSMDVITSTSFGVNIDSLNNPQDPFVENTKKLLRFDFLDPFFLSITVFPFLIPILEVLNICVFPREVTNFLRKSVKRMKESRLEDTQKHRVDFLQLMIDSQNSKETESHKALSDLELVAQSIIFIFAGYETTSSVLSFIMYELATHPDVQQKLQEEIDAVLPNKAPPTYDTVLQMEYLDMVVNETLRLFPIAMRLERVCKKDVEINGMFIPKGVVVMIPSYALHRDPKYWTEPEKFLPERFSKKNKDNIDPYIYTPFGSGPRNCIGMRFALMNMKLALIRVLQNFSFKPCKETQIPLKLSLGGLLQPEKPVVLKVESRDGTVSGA

Cytochrome P450 2D6 = Cytochrome P450 2D6 (Homo sapiens, UniProt P10635);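 further: CYP2D6 member of a cytochrome P450 panel assay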
Sequence of Cytochrome P450 2D6 (P10635 whole entry): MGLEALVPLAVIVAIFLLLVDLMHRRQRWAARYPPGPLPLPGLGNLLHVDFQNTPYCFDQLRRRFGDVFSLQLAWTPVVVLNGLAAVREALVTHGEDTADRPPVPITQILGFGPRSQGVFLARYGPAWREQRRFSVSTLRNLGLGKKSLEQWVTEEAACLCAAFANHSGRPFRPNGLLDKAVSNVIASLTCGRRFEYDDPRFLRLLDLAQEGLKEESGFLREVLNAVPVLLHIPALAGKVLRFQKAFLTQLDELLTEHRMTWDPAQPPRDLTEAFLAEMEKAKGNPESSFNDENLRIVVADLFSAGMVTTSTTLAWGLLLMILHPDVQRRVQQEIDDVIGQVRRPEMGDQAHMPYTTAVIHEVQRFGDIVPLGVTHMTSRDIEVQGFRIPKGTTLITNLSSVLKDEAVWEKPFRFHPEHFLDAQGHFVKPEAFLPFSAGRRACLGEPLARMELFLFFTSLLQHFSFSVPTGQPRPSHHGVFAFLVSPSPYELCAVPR

Genome polyprotein = Genome polyprotein (dengue virus type 2, UniProt P29990); assay: flavivirus cap methylation enzyme inhibition – biochemical, confirmation dose response, primary screen (AID 588689); format: functional
Sequence of Genome polyprotein (P29990 2492-3391 limits assumed): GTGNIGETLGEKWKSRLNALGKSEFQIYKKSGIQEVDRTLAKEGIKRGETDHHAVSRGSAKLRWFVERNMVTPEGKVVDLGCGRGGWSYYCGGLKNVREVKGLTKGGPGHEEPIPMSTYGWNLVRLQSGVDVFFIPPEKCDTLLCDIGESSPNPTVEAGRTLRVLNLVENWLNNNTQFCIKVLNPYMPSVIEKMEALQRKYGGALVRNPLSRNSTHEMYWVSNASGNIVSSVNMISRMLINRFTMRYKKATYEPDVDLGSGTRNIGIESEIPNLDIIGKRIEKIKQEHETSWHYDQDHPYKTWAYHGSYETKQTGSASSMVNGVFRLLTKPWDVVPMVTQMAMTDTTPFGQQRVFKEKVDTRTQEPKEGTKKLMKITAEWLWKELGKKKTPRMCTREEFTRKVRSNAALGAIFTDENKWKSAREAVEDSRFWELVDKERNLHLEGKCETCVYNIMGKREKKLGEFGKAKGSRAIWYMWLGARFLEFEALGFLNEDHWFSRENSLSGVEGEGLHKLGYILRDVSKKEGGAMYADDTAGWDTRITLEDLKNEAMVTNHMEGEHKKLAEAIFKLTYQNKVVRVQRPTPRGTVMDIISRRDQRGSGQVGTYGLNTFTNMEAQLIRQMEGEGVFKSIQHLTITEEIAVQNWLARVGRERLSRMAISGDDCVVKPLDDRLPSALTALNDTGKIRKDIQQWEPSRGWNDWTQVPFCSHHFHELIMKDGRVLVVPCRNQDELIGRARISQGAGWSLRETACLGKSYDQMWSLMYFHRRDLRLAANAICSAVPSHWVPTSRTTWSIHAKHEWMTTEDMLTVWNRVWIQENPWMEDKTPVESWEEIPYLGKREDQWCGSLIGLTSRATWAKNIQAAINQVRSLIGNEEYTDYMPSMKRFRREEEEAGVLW

[18] = target: T2, Zinc finger protein mex-5 (Caenorhabditis elegans, UniProt Q9XUB2); assay: potency of MEX-5 RNA-binding blockers – biochemical, C. elegans, fluorescence polarization, dose response (AID 1960)
T2 sequence (Q9XUB2 whole entry): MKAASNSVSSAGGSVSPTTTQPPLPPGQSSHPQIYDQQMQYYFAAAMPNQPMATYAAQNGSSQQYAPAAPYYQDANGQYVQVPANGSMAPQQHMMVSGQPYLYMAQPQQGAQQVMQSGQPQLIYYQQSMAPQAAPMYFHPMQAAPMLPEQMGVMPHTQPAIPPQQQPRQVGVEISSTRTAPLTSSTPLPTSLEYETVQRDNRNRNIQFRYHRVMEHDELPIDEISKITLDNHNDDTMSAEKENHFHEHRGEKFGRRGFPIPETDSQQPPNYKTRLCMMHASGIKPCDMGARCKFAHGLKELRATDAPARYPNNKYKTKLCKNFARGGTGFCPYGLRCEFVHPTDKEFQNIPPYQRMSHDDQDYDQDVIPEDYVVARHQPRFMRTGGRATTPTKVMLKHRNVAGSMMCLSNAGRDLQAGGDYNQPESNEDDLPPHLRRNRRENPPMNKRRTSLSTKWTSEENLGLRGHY

[19] = target: Bifunctional protein GlmU (Mycobacterium tuberculosis, UniProt P9WMN3); assay: Inhibitors of Mycobacterial Glucosamine-1-phosphate acetyl transferase (GlmU). Secondary screen.; set-up: species or system Mycobacterium tuberculosis H37Rv
Sequence of Bifunctional protein GlmU (P9WMN3 whole entry, the tested form may be a part): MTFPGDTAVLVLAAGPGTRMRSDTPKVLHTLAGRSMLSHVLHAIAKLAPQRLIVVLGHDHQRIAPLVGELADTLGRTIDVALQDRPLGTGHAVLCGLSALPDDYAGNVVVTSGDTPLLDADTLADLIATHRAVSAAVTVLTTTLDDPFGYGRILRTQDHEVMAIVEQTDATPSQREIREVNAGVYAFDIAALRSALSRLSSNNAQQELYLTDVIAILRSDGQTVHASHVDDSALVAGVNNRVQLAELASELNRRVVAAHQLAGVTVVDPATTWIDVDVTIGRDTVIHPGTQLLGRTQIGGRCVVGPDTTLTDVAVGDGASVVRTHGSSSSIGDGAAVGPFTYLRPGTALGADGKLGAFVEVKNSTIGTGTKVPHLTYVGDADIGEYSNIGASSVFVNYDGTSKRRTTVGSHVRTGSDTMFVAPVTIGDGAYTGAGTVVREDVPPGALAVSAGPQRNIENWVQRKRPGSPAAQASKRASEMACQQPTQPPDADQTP

[20] = target: T3, RNA-binding protein pos-1 (Caenorhabditis elegans, UniProt G5EF15); assay: disruptors of C. elegans POS-1 RNA interaction – biochemical, fluorescence polarization, dose response (AID 1964);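 further: purified POS-1 fused to maltose binding protein made in E. coli; potency of compounds blocking POS-1 binding to fluorescent RNA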
T3 sequence (G5EF15 whole entry): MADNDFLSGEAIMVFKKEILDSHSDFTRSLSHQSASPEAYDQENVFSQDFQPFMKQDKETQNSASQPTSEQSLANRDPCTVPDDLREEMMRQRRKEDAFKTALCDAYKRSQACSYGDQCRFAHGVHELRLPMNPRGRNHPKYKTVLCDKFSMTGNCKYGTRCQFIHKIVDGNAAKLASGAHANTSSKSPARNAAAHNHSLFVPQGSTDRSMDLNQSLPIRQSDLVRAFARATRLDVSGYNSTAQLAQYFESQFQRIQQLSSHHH

[21] = target: T4, Polyadenylate-binding protein 1 (Homo sapiens, UniProt P11940); assay: MLLE binding blockers, Cy5 peptide tracer – biochemical, fluorescence polarization, Cy5-PAM2 peptide, secondary, miRNA deadenylation inhibitor project, dose response (AID 602260); format: functional; details: read-out: IC50_Mean
T4 sequence (P11940 whole entry): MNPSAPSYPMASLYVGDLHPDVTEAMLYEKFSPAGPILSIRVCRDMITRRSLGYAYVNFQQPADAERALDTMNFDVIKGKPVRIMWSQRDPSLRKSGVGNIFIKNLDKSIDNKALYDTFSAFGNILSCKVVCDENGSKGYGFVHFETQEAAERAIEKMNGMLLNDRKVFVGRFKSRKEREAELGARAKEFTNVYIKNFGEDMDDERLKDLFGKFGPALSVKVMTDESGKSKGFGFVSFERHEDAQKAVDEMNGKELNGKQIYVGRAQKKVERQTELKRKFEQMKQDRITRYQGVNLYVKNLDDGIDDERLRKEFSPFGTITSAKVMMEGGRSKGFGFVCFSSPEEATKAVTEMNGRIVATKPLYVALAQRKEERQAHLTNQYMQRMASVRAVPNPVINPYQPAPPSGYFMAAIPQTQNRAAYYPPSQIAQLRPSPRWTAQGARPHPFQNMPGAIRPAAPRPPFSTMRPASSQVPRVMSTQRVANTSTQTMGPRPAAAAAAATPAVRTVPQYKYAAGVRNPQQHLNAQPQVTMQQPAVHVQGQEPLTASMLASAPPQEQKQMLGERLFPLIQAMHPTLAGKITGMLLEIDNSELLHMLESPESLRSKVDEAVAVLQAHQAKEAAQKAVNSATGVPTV

[22] = target: T5, Microphthalmia-associated transcription factor (Homo sapiens, UniProt O75030); assay: reducers of TRPM1 reporter luminescence, concentration series – cell-based, SK-MEL-5, cherry-picked, set 3, MITF inhibitor project, dose response (AID 493073); format: functional;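 further: SK-MEL-5 melanoma cells with luciferase driven by the MITF target TRPM1 promoter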
T5 sequence (O75030 whole entry): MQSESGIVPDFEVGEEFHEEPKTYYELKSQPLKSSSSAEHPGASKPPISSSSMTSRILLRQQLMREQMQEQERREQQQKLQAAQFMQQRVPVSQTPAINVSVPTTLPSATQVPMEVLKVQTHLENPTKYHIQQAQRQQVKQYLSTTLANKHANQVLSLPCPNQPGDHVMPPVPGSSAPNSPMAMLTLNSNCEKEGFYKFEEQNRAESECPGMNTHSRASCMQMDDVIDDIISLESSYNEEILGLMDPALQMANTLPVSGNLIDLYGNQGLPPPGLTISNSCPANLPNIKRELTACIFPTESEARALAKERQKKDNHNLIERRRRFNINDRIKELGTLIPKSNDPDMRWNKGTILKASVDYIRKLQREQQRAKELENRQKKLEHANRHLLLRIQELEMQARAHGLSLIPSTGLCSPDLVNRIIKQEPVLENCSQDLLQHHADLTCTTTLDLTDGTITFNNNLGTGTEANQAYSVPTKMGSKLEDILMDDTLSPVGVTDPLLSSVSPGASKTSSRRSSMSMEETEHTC

[23] = target: T4, Polyadenylate-binding protein 1; assay: MLLE domain peptide-binding blockers, IC50 – biochemical, fluorescence polarization, FITC-PAM2 peptide, dose response (AID 602259); format: functional; details: read-out: IC50_Mean
[24] = target: E3 ubiquitin-protein ligase Mdm2 (Homo sapiens, UniProt Q00987); assay: MDM2-luc reporter signal enhancers, multi-concentration potency testing, MDM2 ubiquitin-protein ligase inhibitor program, whole-cell format, luminescence detection, 384-well microplate (AID 1394); format: functional;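 further: MDM2 E3 inhibitors raise luminescence so EC50 is for signal enhancement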
Sequence of E3 ubiquitin-protein ligase Mdm2 (Q00987 whole entry): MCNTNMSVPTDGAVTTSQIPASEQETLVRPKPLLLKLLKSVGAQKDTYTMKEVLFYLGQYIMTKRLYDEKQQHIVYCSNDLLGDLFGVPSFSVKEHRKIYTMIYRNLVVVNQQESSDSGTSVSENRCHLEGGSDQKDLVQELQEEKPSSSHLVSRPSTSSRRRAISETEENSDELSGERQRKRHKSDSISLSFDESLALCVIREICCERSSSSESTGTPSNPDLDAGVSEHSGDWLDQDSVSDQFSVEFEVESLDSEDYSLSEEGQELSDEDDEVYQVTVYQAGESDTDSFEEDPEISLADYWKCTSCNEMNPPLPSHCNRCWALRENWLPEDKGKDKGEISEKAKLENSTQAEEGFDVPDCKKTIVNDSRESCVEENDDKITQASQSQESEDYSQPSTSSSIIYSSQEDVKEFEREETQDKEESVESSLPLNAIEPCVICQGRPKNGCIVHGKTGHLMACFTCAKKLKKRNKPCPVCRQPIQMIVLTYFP

[25] = viability of uninfected HEp-2 cells – cell-based, HTS, cytotoxicity control for RSV inhibitor project, dose response (AID 2410); format: functional; details: human respiratory syncytial virus
H4 = assay: Luminescence Cell-Based Dose Response HTS to Identify Activators of 5'UTR Stem-Loop Driven Prion Protein mRNA Translation in H4 Neuroglioblastoma Cells. [Related pubchem assays: 1829 (Project Summary), 1814 (Primary HTS)]; format: functional; details: Homo sapiens
[26] = Luminescence Cell-Based Dose Response to Identify Activators of Luciferase Translation or Activity in H4-C Neuroglioblastoma Cells. [Related pubchem assays: 1829 (Project Summary), 1814 (Primary HTS)]; format: functional
[27] = Luminescence Cell-Based Dose Response to Identify Activators of 5'UTR Stem-Loop Driven Prion Protein mRNA Translation in H4-C Neuroglioblastoma Cells. [Related pubchem assays: 1829 (Project Summary), 1814 (Primary HTS)]; format: functional
[28] = Luminescence Cell-Based Dose Confirmation to Identify Activators of 5'UTR Stem-Loop Driven Alpha-Synuclein mRNA Translation in H4 Neuroglioblastoma Cells. [Related pubchem assays: 1829 (Project Summary), 1814 (Primary HTS)]; format: functional
[29] = Luminescence Cell-Based Dose Response HTS to Identify Activators of Luciferase Translation or Activity in H4 […] Cells. [Related pubchem assays: 1829 (Project Summary), 1814 (Primary HTS)]; format: functional

Structure (SMILES): CC(=O)c1cccc(NC(=O)CN2C(=O)NC3(CCCCCCC3)C2=O)c1
- IC50 (Estrogen receptor): 48.2 µM (not active)
- IC50 (Protein Tat): > 100 µM (active)

Structure (SMILES): CCN(CC)CCOc1ccc(C(O)(Cc2ccc(Cl)cc2)c2ccc(C)cc2)cc1 (centres undefined) [TRIPARANOL]
- IC50 [1]: 8.99 µM (inactive)
- IC50 [2]: > 40 µM (inactive)
- IC50 [3]: > 20 µM (inactive)
- IC50 [4]: 3.76 µM (active)
- IC50 [5]: 3.74 µM (active)
- IC50 [6]: 2.46 µM (active)
- IC50 [7]: 3.17 µM (active)
- IC50 [8]: > 10 µM (inactive)
- IC50 [9]: > 10 µM (inactive)
- IC50 [10]: 36.1 µM (inactive)
- IC50 [11]: 0.299 µM (active)
- IC50 [12]: > 20 µM (inactive)

Structure (SMILES): O=C(COC(=O)Cc1ccc(F)cc1)NCc1ccco1
- IC50 [13]: > 109 µM (inactive)
- IC50 [14]: > 83.2 µM (inactive)

Structure (SMILES): O=C(Cc1ccc(-c2ccccc2)cc1)NC(c1ccccc1)c1ccccc1
- IC50 [13]: > 109 µM (inactive)
- IC50 [14]: > 83.3 µM (inactive)

Structure (SMILES): NC(=O)c1ccc(N2CCN(c3ccc(O)cc3)CC2)c([N+](=O)[O-])c1
- IC50 (Large T antigen): 8.31 µM (active)
- IC50 (Protein Tat): > 100 µM (active)

Structure (SMILES): CN1CCN(c2nc(-c3ccc(Br)cc3)nnc2-c2ccccc2)CC1
- EC50 (cells): 0.008 µM (active)
- EC50 [15]: < 0.1 µM (active)
- EC50 [16]: > 60 µM (inconclusive)

Structure (SMILES): O=C(N/N=C/c1ccc(F)cc1)c1ccc(Br)cc1
- IC50 [17]: > 50 µM (active)
- AC50 (Cytochrome P450 3A4): 22.4 µM (inconclusive)
- AC50 (Cytochrome P450 2D6): 3.55 µM (inconclusive)

Structure (SMILES): CCc1sc(C(=O)NC2CCN(C)CC2)cc1Br
- EC50 (cells): 0.026 µM (active)
- EC50 [15]: < 0.1 µM (active)
- EC50 [16]: > 60 µM (not active)

Structure (SMILES): COc1ccc(N2C(=O)C(Cl)=C(Nc3ccccc3O)C2=O)cc1
- IC50 (Genome polyprotein): 78 µM (active)
- EC50 [18]: 24.5 µM (active)
- IC50 [19]: 53.6 µM (active)
- EC50 [20]: > 300 µM (not active)

Structure (SMILES): COC(=O)CSC1=C(C#N)C(=O)NC(c2ccccc2)S1 (centres undefined)
- IC50 [21]: > 66 µM (inactive)
- AC50 [22]: 7.06 µM (active)
- IC50 [23]: > 66 µM (inactive)
- EC50 [24]: 2.15 µM (active)

Structure (SMILES): CCCSc1nnc(NC(=O)c2sc3nc(-c4cccs4)ccc3c2N)s1
- CC50 [25]: 46 µM (active)
- IC50 [19]: 167 µM (active)

Structure (SMILES): COc1ccc(Cl)c2c3n[nH]c(SCc4ccccn4)nc-3nc12
- EC50 (H4): 25.2 µM (active)
- EC50 [26]: 0.287 µM (active)
- EC50 [27]: 0.391 µM (active)
- EC50 [28]: 0.249 µM (active)
- EC50 [29]: < 0.1 µM (active)

— ChEMBL document CHEMBL1201862, “PubChem BioAssay data set” (2004)
